{
  "source": "PubChem BioAssay AID1259407",
  "about": "(Chemical Carcinogenesis Research Information System (CCRIS), 2018)",
  "test_system": "CCRIS mutagenicity, Ames/micronucleus/aberration tests",
  "test": "CCRIS mutagenicity studies",
  "note": "The source made the active and inactive calls. The rule behind the calls is not given here.",
  "data": [
    {"compound": "COc1ccc(N)c(OC)c1", "values": [
      {"measurement": "mutagenic call", "setting": "Test System: AMES SALMONELLA TYPHIMURIUM, Strain/Indicator: TA98, Metabolic Activation: HAMSTER, LIVER, S-9, AROCLOR 1254 (30%), Method: PREINCUBATION", "result": "active; positive"},
      {"measurement": "mutagenic call", "setting": "Test System: AMES SALMONELLA TYPHIMURIUM, Strain/Indicator: TA98, Metabolic Activation: HAMSTER, LIVER, S-9, Method: STANDARD PLATE", "result": "inactive; negative"},
      {"measurement": "mutagenic call", "setting": "Test System: AMES SALMONELLA TYPHIMURIUM, Strain/Indicator: TA98, Metabolic Activation: MOUSE, LIVER, S-9, AROCLOR 1254, Method: STANDARD PLATE", "result": "inactive; negative"},
      {"measurement": "mutagenic call", "setting": "Test System: AMES SALMONELLA TYPHIMURIUM, Strain/Indicator: TA98, Metabolic Activation: MOUSE, LIVER, S-9, Method: STANDARD PLATE", "result": "inactive; negative"},
      {"measurement": "mutagenic call", "setting": "Test System: AMES SALMONELLA TYPHIMURIUM, Strain/Indicator: TA98, Metabolic Activation: NONE, Method: PREINCUBATION", "result": "inactive; negative"},
      {"measurement": "mutagenic call", "setting": "Test System: AMES SALMONELLA TYPHIMURIUM, Strain/Indicator: TA98, Metabolic Activation: NONE, Method: STANDARD PLATE", "result": "inactive; negative"},
      {"measurement": "mutagenic call", "setting": "Test System: AMES SALMONELLA TYPHIMURIUM, Strain/Indicator: TA98, Metabolic Activation: RAT, LIVER, S-9, AROCLOR 1254 (30%), Method: PREINCUBATION", "result": "active; positive"},
      {"measurement": "mutagenic call", "setting": "Test System: AMES SALMONELLA TYPHIMURIUM, Strain/Indicator: TA98, Metabolic Activation: RAT, LIVER, S-9, Method: STANDARD PLATE", "result": "inactive; negative"},
      {"measurement": "mutagenic call", "setting": "Test System: AMES SALMONELLA TYPHIMURIUM, Strain/Indicator: TA100, Metabolic Activation: HAMSTER, LIVER, S-9, AROCLOR 1254 (30%), Method: PREINCUBATION", "result": "active; positive"},
      {"measurement": "mutagenic call", "setting": "Test System: AMES SALMONELLA TYPHIMURIUM, Strain/Indicator: TA100, Metabolic Activation: HAMSTER, LIVER, S-9, AROCLOR 1254, Method: STANDARD PLATE", "result": "inactive; negative"},
      {"measurement": "mutagenic call", "setting": "Test System: AMES SALMONELLA TYPHIMURIUM, Strain/Indicator: TA100, Metabolic Activation: HAMSTER, LIVER, S-9, Method: STANDARD PLATE", "result": "inactive; negative"},
      {"measurement": "mutagenic call", "setting": "Test System: AMES SALMONELLA TYPHIMURIUM, Strain/Indicator: TA100, Metabolic Activation: MOUSE, LIVER, S-9, AROCLOR 1254, Method: STANDARD PLATE", "result": "inactive; negative"},
      {"measurement": "mutagenic call", "setting": "Test System: AMES SALMONELLA TYPHIMURIUM, Strain/Indicator: TA100, Metabolic Activation: MOUSE, LIVER, S-9, Method: STANDARD PLATE", "result": "inactive; negative"},
      {"measurement": "mutagenic call", "setting": "Test System: AMES SALMONELLA TYPHIMURIUM, Strain/Indicator: TA100, Metabolic Activation: NONE, Method: PREINCUBATION", "result": "inactive; negative"},
      {"measurement": "mutagenic call", "setting": "Test System: AMES SALMONELLA TYPHIMURIUM, Strain/Indicator: TA100, Metabolic Activation: NONE, Method: STANDARD PLATE", "result": "inactive; negative"},
      {"measurement": "mutagenic call", "setting": "Test System: AMES SALMONELLA TYPHIMURIUM, Strain/Indicator: TA100, Metabolic Activation: RAT, LIVER, S-9, AROCLOR 1254 (30%), Method: PREINCUBATION", "result": "inactive; negative"},
      {"measurement": "mutagenic call", "setting": "Test System: AMES SALMONELLA TYPHIMURIUM, Strain/Indicator: TA100, Metabolic Activation: RAT, LIVER, S-9, AROCLOR 1254, Method: STANDARD PLATE", "result": "inactive; negative"},
      {"measurement": "mutagenic call", "setting": "Test System: AMES SALMONELLA TYPHIMURIUM, Strain/Indicator: TA100, Metabolic Activation: RAT, LIVER, S-9, Method: STANDARD PLATE", "result": "inactive; negative"},
      {"measurement": "mutagenic call", "setting": "Test System: AMES SALMONELLA TYPHIMURIUM, Strain/Indicator: TA1535, Metabolic Activation: HAMSTER, LIVER, S-9, AROCLOR 1254, Method: STANDARD PLATE", "result": "inactive; negative"},
      {"measurement": "mutagenic call", "setting": "Test System: AMES SALMONELLA TYPHIMURIUM, Strain/Indicator: TA1535, Metabolic Activation: HAMSTER, LIVER, S-9, Method: STANDARD PLATE", "result": "inactive; negative"},
      {"measurement": "mutagenic call", "setting": "Test System: AMES SALMONELLA TYPHIMURIUM, Strain/Indicator: TA1535, Metabolic Activation: MOUSE, LIVER, S-9, AROCLOR 1254, Method: STANDARD PLATE", "result": "inactive; negative"},
      {"measurement": "mutagenic call", "setting": "Test System: AMES SALMONELLA TYPHIMURIUM, Strain/Indicator: TA1535, Metabolic Activation: MOUSE, LIVER, S-9, Method: STANDARD PLATE", "result": "inactive; negative"},
      {"measurement": "mutagenic call", "setting": "Test System: AMES SALMONELLA TYPHIMURIUM, Strain/Indicator: TA1535, Metabolic Activation: NONE, Method: STANDARD PLATE", "result": "inactive; negative"},
      {"measurement": "mutagenic call", "setting": "Test System: AMES SALMONELLA TYPHIMURIUM, Strain/Indicator: TA1535, Metabolic Activation: RAT, LIVER, S-9, AROCLOR 1254, Method: STANDARD PLATE", "result": "inactive; negative"},
      {"measurement": "mutagenic call", "setting": "Test System: AMES SALMONELLA TYPHIMURIUM, Strain/Indicator: TA1535, Metabolic Activation: RAT, LIVER, S-9, Method: STANDARD PLATE", "result": "inactive; negative"},
      {"measurement": "mutagenic call", "setting": "Test System: AMES SALMONELLA TYPHIMURIUM, Strain/Indicator: TA1537, Metabolic Activation: HAMSTER, LIVER, S-9, Method: STANDARD PLATE", "result": "inactive; negative"},
      {"measurement": "mutagenic call", "setting": "Test System: AMES SALMONELLA TYPHIMURIUM, Strain/Indicator: TA1537, Metabolic Activation: MOUSE, LIVER, S-9, AROCLOR 1254, Method: STANDARD PLATE", "result": "inactive; negative"},
      {"measurement": "mutagenic call", "setting": "Test System: AMES SALMONELLA TYPHIMURIUM, Strain/Indicator: TA1537, Metabolic Activation: MOUSE, LIVER, S-9, Method: STANDARD PLATE", "result": "inactive; negative"},
      {"measurement": "mutagenic call", "setting": "Test System: AMES SALMONELLA TYPHIMURIUM, Strain/Indicator: TA1537, Metabolic Activation: NONE, Method: STANDARD PLATE", "result": "inactive; negative"},
      {"measurement": "mutagenic call", "setting": "Test System: AMES SALMONELLA TYPHIMURIUM, Strain/Indicator: TA1537, Metabolic Activation: RAT, LIVER, S-9, AROCLOR 1254, Method: STANDARD PLATE", "result": "inactive; negative"},
      {"measurement": "mutagenic call", "setting": "Test System: AMES SALMONELLA TYPHIMURIUM, Strain/Indicator: TA1537, Metabolic Activation: RAT, LIVER, S-9, Method: STANDARD PLATE", "result": "inactive; negative"},
      {"measurement": "mutagenic call", "setting": "Test System: AMES SALMONELLA TYPHIMURIUM, Strain/Indicator: TA1538, Metabolic Activation: MOUSE, LIVER, S-9, Method: STANDARD PLATE", "result": "inactive; negative"},
      {"measurement": "mutagenic call", "setting": "Test System: AMES SALMONELLA TYPHIMURIUM, Strain/Indicator: TA1538, Metabolic Activation: NONE, Method: STANDARD PLATE", "result": "inactive; negative"},
      {"measurement": "mutagenic call", "setting": "Test System: AMES SALMONELLA TYPHIMURIUM, Strain/Indicator: TA1538, Metabolic Activation: RAT, LIVER, S-9, Method: STANDARD PLATE", "result": "inactive; negative"},
      {"measurement": "mutagenic call", "setting": "Test System: E. COLI, Strain/Indicator: WP2 UVRA, Metabolic Activation: HAMSTER, LIVER, S-9, AROCLOR 1254, Method: STANDARD PLATE", "result": "inactive; negative"},
      {"measurement": "mutagenic call", "setting": "Test System: E. COLI, Strain/Indicator: WP2 UVRA, Metabolic Activation: HAMSTER, LIVER, S-9, Method: STANDARD PLATE", "result": "inactive; negative"},
      {"measurement": "mutagenic call", "setting": "Test System: E. COLI, Strain/Indicator: WP2 UVRA, Metabolic Activation: MOUSE, LIVER, S-9, AROCLOR 1254, Method: STANDARD PLATE", "result": "inactive; negative"},
      {"measurement": "mutagenic call", "setting": "Test System: E. COLI, Strain/Indicator: WP2 UVRA, Metabolic Activation: MOUSE, LIVER, S-9, Method: STANDARD PLATE", "result": "inactive; negative"},
      {"measurement": "mutagenic call", "setting": "Test System: E. COLI, Strain/Indicator: WP2 UVRA, Metabolic Activation: NONE, Method: STANDARD PLATE", "result": "inactive; negative"},
      {"measurement": "mutagenic call", "setting": "Test System: E. COLI, Strain/Indicator: WP2 UVRA, Metabolic Activation: RAT, LIVER, S-9, AROCLOR 1254, Method: STANDARD PLATE", "result": "inactive; negative"},
      {"measurement": "mutagenic call", "setting": "Test System: E. COLI, Strain/Indicator: WP2 UVRA, Metabolic Activation: RAT, LIVER, S-9, Method: STANDARD PLATE", "result": "inactive; negative"}
    ]}
  ]
}
